The values below are quoted from earlier work in publication PMC10720383, “Acetylcholinesterase Inhibition in Rats and Humans Following Acute Fenitrothion Exposure Predicted by Physiologically Based Kinetic Modeling-Facilitated Quantitative In Vitro to In Vivo Extrapolation” (Environmental Science & Technology, 2023).

Read-outs that look alike come from different tables or passages of the source.

The conditions of series [1]: not clear if experimental or in silico, cited from earlier work.
The conditions of series [2]: assumed default for neutral and acidic compounds, no experimental data; cited from earlier work.
For series [3] the following is noted: rats; diazinon constant used for FNT; cited from earlier work.
The conditions of series [4]: humans; diazinon constant used for FNT; cited from earlier work.

As for `Cc1cc(O)ccc1[N+](=O)[O-]` [MNP, 3-methyl-4-nitrophenol], the “LogP, reported data” value in series [1] (ref OECD 1994) was 2.12. For the same molecule, the “pKa, reported data” value in series [1] (ref Shahpoury et al. 2018) is recorded as 7.33. Moreover, in series [2], the “blood plasma ratio (BPr)” value is listed as 0.55.

With `CCOP(=S)(OCC)Oc1cc(C)nc(C(C)C)n1` [diazinon], in series [3], the “absorption rate constant from intestine to liver (kaI)” value was 0.59 h⁻¹, the “absorption rate constant from stomach to liver (kaS)” value was 0.1 h⁻¹ and the “transfer rate constant from stomach to intestine (ksI)” value is 0.48 h⁻¹. Moreover, in series [4], the “absorption rate constant from intestine to liver (kaI)” value is 0.59 h⁻¹, the “absorption rate constant from stomach to liver (kaS)” value is 0.32 h⁻¹ and the “transfer rate constant from stomach to intestine (ksI)” value is 0.48 h⁻¹.
